In publication PMC8000724, “Trans-Epithelial Transport, Metabolism, and Biological Activity Assessment of the Multi-Target Lupin Peptide [sequence] (P5) and Its Metabolite [sequence] (P5-Met)” (Nutrients, 2021):

Experiments:
Format in all cases: cell-based, human
secreted mature PCSK9 = test: Quantification of PCSK9 secreted by HepG2 cells through ELISA; conditions: HepG2 supernatants, 50 µM, mean ± SD
Protocol: The supernatants collected from treated HepG2 cells (50.0 μM of P5 and/or P5-met) were centrifuged at 600 × g for 10 min at 4 °C and ELISA assay performed using protocol already optimized. They were recovered and diluted to the ratio 1:10 with DMEM in a new ice-cold tube. PCSK9 was quantified by ELISA (R&D System, Minneapolis, MN, USA). Briefly, the experiments were carried out at 37 °C, following the manufacturer’s instructions. Before starting the assay, human PCSK9 standard curve (20.0, 10.0, 5.0, 2.5, 1.25, and 0.625 ng/mL) was prepared by serial dilutions from a 40 ng/mL stock. 100 µL of the Assay Diluent RD1-9 (provided into the kit) were placed in each well, before adding the standards and the samples (50 µL) and incubating the ELISA plate for 2 h at RT. Subsequently, wells were washed 4 times with the wash buffer, and 200 µL of human PCSK9-conjugate (HRP-labelled anti-PCSK9) was added to each well for 2 h at RT. Following aspiration, wells was washed 4 times with the kit wash buffer. After the last wash, 200 µL of substrate solution were added to the wells and allowed to incubate for 30 min at RT. The reaction was stopped with 50 µL of the stop solution (2 M sulfuric acid) and the absorbance at 450 nm was measured using Synergy H1 microplate (Winooski, VT, USA).

[1] = tested on: LDLR on HepG2 cell surface; test: In-cell Western (ICW) assay, LDLR localized on HepG2 cell surface
Protocol: For the experiments, a total of 3 × 10^4 HepG2 cells/well were seeded in 96-well plates. The following day, cells were washed with PBS and then starved overnight (O/N) in DMEM without FBS and antibiotics. After starvation, HepG2 cells were treated with 4.0 μg/mL PCSK9-WT and 4.0 μg/mL PCSK9 + peptides P5 and/or P5-met (50 µM) and vehicle (H2O) for 2 h at 37 °C under 5% CO2 atmosphere. Subsequently, they were fixed in 4% paraformaldehyde for 20 min at room temperature (RT). Cells were washed 5 times with 100 µL of PBS/well (each wash was for 5 min at RT) and the endogenous peroxides activity quenched adding 3% H2O2 for 20 min at RT. Non-specific sites were blocked with 100 µL/well of 5% bovine serum albumin (BSA, Sigma) in PBS for 1.5 h at RT. LDLR primary antibody solution (1:3000 in 5% BSA in PBS, 25 µL/well) was incubated O/N at +4 °C. Subsequently, the primary antibody solution was discarded and each sample was washed 5 times with 100 µL/well of PBS (each wash was for 5 min at RT). Goat anti-rabbit Ig-HRP secondary antibody solution (Santa Cruz) (1:6000 in 5% BSA in PBS, 50 µL/well), was added and incubated 1 h at RT. The secondary antibody solution was washed 5 times with 100 µL/well of PBS (each wash for 5 min at RT). Freshly prepared TMB substrate (Pierce, 100 µL/well) was added and the plate was incubated at RT until desired color was developed. The reaction was stopped with 2 M H2SO4 and then the absorbance at 450 nm was measured using the microplate reader Synergy H1 (Winooski, VT, USA). After the read, cells were stained by adding 1× Janus Green stain, incubating for 5 min at RT. The dye was removed and the sample washed 5 times with water. Afterward 100 µL 0.5 M HCl for well were added and incubated for 10 min. After 10 seconds shaking, the OD at 595 nm was measured using the microplate reader Synergy H1 (Winooski, VT, USA).

HepG2 cells = test: Fluorescent LDL uptake by HepG2 cells; conditions: mean ± SD
Protocol: HepG2 cells (3 × 10^4/well) were seeded in 96-well plates and kept in complete growth medium for 2 days before treatment. The third day, cells were washed with PBS and then starved overnight (O/N) in DMEM without FBS and antibiotics. After starvation, they were treated with 4.0 μg/mL PCSK9 and 4.0 μg/mL PCSK9 + P5 and P5-met peptides (50.0 µM), and vehicle (H2O) for 2 h with at 37 °C under 5% CO2 atmosphere. At the end of the treatment, the culture medium was replaced with 50 μL/well LDL-DyLight™ 550 working solution (Cayman Chemical Company, Ann Arbor, MI, USA) prepared in DMEM without FBS and antibiotics. The cells were additionally incubated for 2 h at 37 °C and then the culture medium was aspirated and replaced with PBS (100 μL/well). The degree of LDL uptake was measured using the Synergy H1 fluorescent plate reader (Winooski, VT, USA) (excitation and emission wavelengths 540 and 570 nm, respectively). Fluorescent LDL-uptake was finally assessed following optimized protocol.

PCSK9 = test: Western blot, PCSK9 protein level in HepG2 cells; conditions: HepG2, 50 µM, 24 h, mean ± SD
Protocol: (§1) The HepG2 cell line was bought from ATCC (HB-8065, ATCC from LGC Standards, Milan, Italy) and was cultured in DMEM high glucose with stable L-glutamine, supplemented with 10% FBS, 100 U/mL penicillin, 100 µg/mL streptomycin (complete growth medium) with incubation at 37 °C under 5% CO2 atmosphere.
(§2) Immunoblotting experiments were performed using optimized protocol. A total of 1.5 × 10^5 HepG2 cells/well (24-well plate) were treated with 50 μM of P5 and P5-met for 24 h. After each treatment, the supernatants were collected and stored at −20°C; cells were scraped in 40 µL ice-cold lysis buffer (RIPA buffer + inhibitor cocktail + 1:100 PMSF + 1:100 Na-orthovanadate + 1:1000 β-mercaptoethanol) and transferred in ice-cold microcentrifuge tubes. […] Total proteins were quantified by the Bradford’s method and 50 μg of total proteins loaded on a pre-cast 7.5% Sodium Dodecyl Sulfate-Polyacrylamide (SDS-PAGE) gel at 130 V for 45 min. […] Target proteins, on milk or BSA blocked membrane, were detected by primary antibodies as follows: anti-SREBP-2, anti-LDLR, anti-HMGCoAR, anti-PCSK9, anti HNF1-α and anti-β-actin. Secondary antibodies conjugated with HRP and a chemiluminescent reagent were used to visualize target proteins and their signal was quantified using the Image Lab Software (Biorad, Hercules, CA, USA). […]

HNF-1α = test: Western blot, HNF-1α protein level in HepG2 cells; conditions: HepG2, 50 µM, 24 h, mean ± SD
Protocol: as §1, §2

SREBP-2 = test: Western blot, SREBP-2 protein level in HepG2 cells; conditions: HepG2, 50 µM, 24 h, mean ± SD
Protocol: as §1, §2

LDLR = test: Western blot, LDLR protein level in HepG2 cells; conditions: HepG2, 50 µM, 24 h, mean ± SD
Protocol: as §1, §2

H-LPKHSDAD-OH [Peptide P5-met] was tested, and the “Decrease of the secretion of mature PCSK9” value (secreted mature PCSK9) was 22.2 ± 4.9%, the “LDLR localized on the cellular membranes of HepG2 cells versus the control” value ([1]; HepG2, 50 µM, without added PCSK9, mean ± SD) was 145.2 ±15.2% and the “LDLR level on HepG2 cell surface restored, co-incubation with PCSK9” value ([1]; peptide 50 µM + PCSK9 4 µg/mL, 2 h, % of control, mean ± SD) was 90.1 ± 0.1%. For the same substance, the “Ability of HepG2 cells to absorb extracellular LDL versus the control” value (HepG2 cells; HepG2, 50 µM, fluorescent LDL-DyLight 550, without added PCSK9) was 181.2 ± 40.1%, the “LDL uptake by HepG2 cells restored, co-incubation with PCSK9” value (HepG2 cells; peptide 50 µM + PCSK9 4 µg/mL, 2 h, % of untreated cells) was 104.1 ± 8.5% and the “Decrease of PCSK9 protein level” value (PCSK9) was 29 ± 8.1%. The “Decrease of HNF-1α protein” value (HNF-1α) was 10.8 ± 3.5%, the “SREBP-2 protein level versus the control” value (SREBP-2) was 130.4 ± 16.4% and the “LDLR protein level versus the control” value (LDLR) was 150.4 ± 29.2%.
